Experimental data from ChEMBL document CHEMBL1155663, “A new major triterpene saponin from the roots of Cucurbita foetidissima” (J Nat Prod, 2000).
The source made the active and inactive calls. The calls are words filed in the database; no cut-off is given here.

Test system: HT-29
Experiment: Potentiation of cisplatin-induced cytotoxicity against human HT29 cells
Assay type: functional, cell-based

With `C[C@@H]1O[C@@H](O[C@@H]2[C@@H](OC(=O)[C@]34CCC(C)(C)C[C@@H]3C3=CC[C@@H]5[C@@]6(C)CC[C@H](O[C@@H]7O[C@H](C(=O)O)[C@@H](O)[C@H](O)[C@H]7O)C(C)(C)[C@@H]6CC[C@@]5(C)[C@]3(C)C[C@H]4O)OC[C@@H](O)[C@H]2O)[C@H](O)[C@H](O[C@H]2OC[C@H](O)[C@@H](O[C@H]3O[C@@H](CO)[C@H](O)[C@@H](O)[C@@H]3O)[C@@H]2O)[C@H]1O[C@@H]1OC[C@@H](O)[C@H](O)[C@H]1O` the Activity was “inactive”.
